System: 817829-284-R-J1-PDC complex spheroids, viability
Assay: Anticancer human tumor 817829-284-R-J1-PDC patient-derived colon adenocarcinoma cell line growth inhibition [GQUAD]
Conditions: for IC50: curve of first compound; for viability, T/C: stronger effect = lower value
Text: DNA G-quadruplex Stabilizer Agents in Combinations in Complex Spheroids
A high-throughput screen of multi-cell type tumor spheroids was designed to identify active combinations of DNA G-quadruplex stabilizer agents and targeted small molecules. Complex spheroids include a stromal component modeled by human endothelial cells (HUVEC) and fibroblasts modeled by human mesenchymal stem cells (MSCs). The concentration ranges selected for each drug and investigational agent were based upon clinically achievable concentrations if the clinical Cmax of the agent was known.
Compounds. The drugs and investigational agents: pidnarulex (CX-5461; NSC782164), APTO-253 (NSC789042), BRACO-19 (NSC847499), peposertib (NSC802822), ceralasertib (NSC780249), elimusertib (NSC800525), camonsertib (NSC841442), AZD-1390 (NSC803789), olaparib (NSC753686), talazoparib (NSC767125), ART-558 (NSC835418), sotorasib (NSC818433), MRTX-1133 (NSC836407), SN-38 (NSC673596), topotecan (NSC609699), etoposide (NSC141540), doxorubicin (NSC123127), gemcitabine (NSC613327), 5-fluorouracil (NSC19893), paclitaxel (NSC125973), vemurafenib (NSC761431), panobinostat (NSC761190), R-306465 (JNJ-16241199; NSC773264), adavosertib (NSC754352), TP-3654 (NSC805149), carboplatin (NSC241240), KSQ-4279 (NSC840948), and staurosporine (NSC755774) were obtained from the National Cancer Institute (NCI) Developmental Therapeutics Program Chemical Repository (34). The FDA-approved anticancer drug set is available from the NCI Developmental Therapeutics Program. […] The stock solutions were prepared in dimethyl sulfoxide (DMSO, Sigma-Aldrich, St. Louis, MO, cat. D2650) at 800-fold the tested concentration and stored at -70 degrees C prior to their use. All drugs and investigational agents were tested over a range starting from a high concentration at or near the clinical Cmax and decreasing in half-log increments. If the clinical Cmax for an agent had not been determined, the highest concentration tested was 10 microM.
2.3 Cell Culture. All cells were maintained in an incubator at 37 degrees C and 5% CO2 with 95% humidity. The PDC lines were cultured according to standard operating procedures established by the NCI PDMR. All PDCs were thawed and cultured in Matrigel-coated flasks prepared with a working solution of 1X Ham's F-12 nutrient mix, without supplementation (Invitrogen, cat. 11765054), 100 U/mL penicillin-streptomycin (Invitrogen, cat. 15140122), and 2.5% Matrigel (Corning Inc., cat. 354248) for the first three passages. The 857933-349-R-J2-PDC line was cultured in 6C/Colon 1B media, which includes advanced DMEM/F-12 (Thermo Fisher Scientific, cat. 12634028), 10 mM HEPES (Thermo Fisher Scientific, cat. 15630080), 1X GlutaMAX supplement (Thermo Fisher Scientific, cat. 35050061), 0.1 mg/mL primocin (InvivoGen, cat. ant-pm-2), 10% defined fetal bovine serum, heat inactivated (HyClone Laboratories Inc., cat. SH30070.03HI), 50% L-WRN conditioned media (ATCC, cat. CRL-3276), 1.25 mM N-Acetyl-L-cysteine (Sigma-Aldrich, cat. A9165), 10 mM nicotinamide (Sigma-Aldrich, cat. N0636), 1X B-27 supplement (Thermo Fisher Scientific, cat. 17504044), 1X N-2 supplement (Thermo Fisher Scientific, cat. 17502048), 10 microM Y-27632 dihydrochloride (Tocris Bioscience, cat. 1254), and 50 ng/mL human EGF recombinant protein (Thermo Fisher Scientific, cat. PHG0311). The 485176-168-R4-J1-PDC line was cultured in Panc media, which includes all 6C/Colon 1B media components plus 100 ng/mL human FGF-10 (Thermo Fisher Scientific, cat. 100-26), 500 nM SB-431542 (Selleckchem, cat. S1067), and gastrin (Tocris, cat. 3006).
[…]

[1] = second compound 0.0316 µM, first compound 0.0316 µM
[2] = second compound 0.0316 µM, first compound 0.1 µM
[3] = second compound 0.0316 µM, first compound 0.316 µM
[4] = second compound 0.0316 µM, first compound 1 µM
[5] = second compound 0.0316 µM, first compound 3.16 µM
[6] = second compound 0.0316 µM, first compound 10 µM
[7] = second compound 0.1 µM, first compound 0.0316 µM
[8] = second compound 0.1 µM, first compound 0.1 µM
[9] = second compound 0.1 µM, first compound 0.316 µM
[10] = second compound 0.1 µM, first compound 1 µM
[11] = second compound 0.1 µM, first compound 3.16 µM
[12] = second compound 0.1 µM, first compound 10 µM
[13] = second compound 0.316 µM, first compound 0.0316 µM
[14] = second compound 0.316 µM, first compound 0.1 µM
[15] = second compound 0.316 µM, first compound 0.316 µM
[16] = second compound 0.316 µM, first compound 1 µM
[17] = second compound 0.316 µM, first compound 3.16 µM
[18] = second compound 0.316 µM, first compound 10 µM
[19] = second compound 1 µM, first compound 0.0316 µM
[20] = second compound 1 µM, first compound 0.1 µM
[21] = second compound 1 µM, first compound 0.316 µM
[22] = second compound 1 µM, first compound 1 µM
[23] = second compound 1 µM, first compound 3.16 µM
[24] = second compound 1 µM, first compound 10 µM
[25] = second compound 3.16 µM, first compound 0.0316 µM
[26] = second compound 3.16 µM, first compound 0.1 µM
[27] = second compound 3.16 µM, first compound 0.316 µM
[28] = second compound 3.16 µM, first compound 1 µM
[29] = second compound 3.16 µM, first compound 3.16 µM
[30] = second compound 3.16 µM, first compound 10 µM
[31] = second compound 10 µM, first compound 0.0316 µM
[32] = second compound 10 µM, first compound 0.1 µM
[33] = second compound 10 µM, first compound 0.316 µM
[34] = second compound 10 µM, first compound 1 µM
[35] = second compound 10 µM, first compound 3.16 µM
[36] = second compound 10 µM, first compound 10 µM
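Also: spheroids exposed to agents for 7 days before readout.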
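For viability, T/C in this document: percent viability relative to DMSO vehicle control taken as 100%.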

In the case of `CC(C)n1c(=O)n(C)c2cnc3cc(F)c(-c4ccc(OCCCN5CCCCC5)nc4)cc3c21` + Cc1[nH]c2ccc(F)cc2c1-c1nc2c3cccnc3c3ncccc3c2[nH]1, the IC50 (second compound 0.0316 µM) is reported as > 10 µM, the IC50 (second compound 0.1 µM) is reported as > 10 µM and the IC50 (second compound 0.316 µM) is reported as > 10 µM. The IC50 (second compound 1 µM) was 7.83 µM, the IC50 (second compound 3.16 µM) was 4.57 µM and the IC50 (second compound 10 µM) was 0.549 µM. The viability, T/C [1] was 120%, the viability, T/C [2] was 82.6% and the viability, T/C [3] was 84.8%. It also gave a viability, T/C [4] of 94.4%, a viability, T/C [5] of 104% and a viability, T/C [6] of 94.9%. It also gave a viability, T/C [7] of 90.8%, a viability, T/C [8] of 106% and a viability, T/C [9] of 95.8%. It also gave a viability, T/C [10] of 107%, a viability, T/C [11] of 107% and a viability, T/C [12] of 117%. For the same molecule, the viability, T/C [13] was 79.7%, the viability, T/C [14] was 99.8% and the viability, T/C [15] was 103%. It also gave a viability, T/C [16] of 103%, a viability, T/C [17] of 117% and a viability, T/C [18] of 103%. It also gave a viability, T/C [19] of 87.5%, a viability, T/C [20] of 104% and a viability, T/C [21] of 120%. It also gave a viability, T/C [22] of 102%, a viability, T/C [23] of 115% and a viability, T/C [24] of 35%. The viability, T/C [25] was 76.6%, the viability, T/C [26] was 90.9% and the viability, T/C [27] was 64.6%. It also gave a viability, T/C [28] of 78%, a viability, T/C [29] of 69.8% and a viability, T/C [30] of 7.73%. For the same molecule, the viability, T/C [31] was 65.2%, the viability, T/C [32] was 73.3% and the viability, T/C [33] was 49.2%. The viability, T/C [34] was 46.5%, the viability, T/C [35] was 21.9% and the viability, T/C [36] was 5.4%.
With `C=CCn1c(=O)c2cnc(Nc3ccc(N4CCN(C)CC4)cc3)nc2n1-c1cccc(C(C)(C)O)n1` + Cc1cnc(CNC(=O)c2c(=O)c3ccc(N4CCCN(C)CC4)nc3n3c2sc2ccccc23)cn1 the IC50 (second compound 0.0316 µM) was 0.0529 µM, the IC50 (second compound 0.1 µM) was < 0.0316 µM and the IC50 (second compound 0.316 µM) was < 0.0316 µM. The IC50 (second compound 1 µM) was < 0.0316 µM, the IC50 (second compound 3.16 µM) was < 0.0316 µM and the IC50 (second compound 10 µM) was < 0.0316 µM. It also gave a viability, T/C [1] of 61.2%, a viability, T/C [2] of 35.9% and a viability, T/C [3] of 17.1%. It also gave a viability, T/C [4] of 6.1%, a viability, T/C [5] of 4.9% and a viability, T/C [6] of 4.63%. The viability, T/C [7] was 25.2%, the viability, T/C [8] was 25.4% and the viability, T/C [9] was 13.4%. For the same molecule, the viability, T/C [10] was 10.5%, the viability, T/C [11] was 7.47% and the viability, T/C [12] was 6.17%. It also gave a viability, T/C [13] of 20.3%, a viability, T/C [14] of 18.2% and a viability, T/C [15] of 15.1%. It also gave a viability, T/C [16] of 10.6%, a viability, T/C [17] of 8.59% and a viability, T/C [18] of 7.12%. The viability, T/C [19] was 16.9%, the viability, T/C [20] was 20.6% and the viability, T/C [21] was 13.9%. It also gave a viability, T/C [22] of 10.2%, a viability, T/C [23] of 7.61% and a viability, T/C [24] of 6.9%. It also gave a viability, T/C [25] of 18.4%, a viability, T/C [26] of 17% and a viability, T/C [27] of 14.1%. It also gave a viability, T/C [28] of 9.62%, a viability, T/C [29] of 6.71% and a viability, T/C [30] of 6.66%. For the same molecule, the viability, T/C [31] was 0.11%, the viability, T/C [32] was 0.15% and the viability, T/C [33] was 0.15%. For the same molecule, the viability, T/C [34] was 0.14%, the viability, T/C [35] was 0.17% and the viability, T/C [36] was 0.2%.
With `CC(C)n1c(=O)n(C)c2cnc3cc(F)c(-c4ccc(OCCCN5CCCCC5)nc4)cc3c21` + CN(C)c1ccc(Nc2c3ccc(NC(=O)CCN4CCCC4)cc3nc3cc(NC(=O)CCN4CCCC4)ccc23)cc1 the IC50 (second compound 0.0316 µM) was > 10 µM, the IC50 (second compound 0.1 µM) was > 10 µM and the IC50 (second compound 0.316 µM) was > 10 µM. The IC50 (second compound 1 µM) was > 10 µM, the IC50 (second compound 3.16 µM) was > 10 µM and the IC50 (second compound 10 µM) was 0.414 µM. The viability, T/C [1] was 92.8%, the viability, T/C [2] was 104% and the viability, T/C [3] was 108%. It also gave a viability, T/C [4] of 107%, a viability, T/C [5] of 105% and a viability, T/C [6] of 116%. For the same molecule, the viability, T/C [7] was 101%, the viability, T/C [8] was 107% and the viability, T/C [9] was 94.3%. It also gave a viability, T/C [10] of 101%, a viability, T/C [11] of 105% and a viability, T/C [12] of 108%. The viability, T/C [13] was 96.8%, the viability, T/C [14] was 98.3% and the viability, T/C [15] was 96%. The viability, T/C [16] was 102%, the viability, T/C [17] was 104% and the viability, T/C [18] was 110%. For the same molecule, the viability, T/C [19] was 94.1%, the viability, T/C [20] was 109% and the viability, T/C [21] was 97.6%. For the same molecule, the viability, T/C [22] was 96.2%, the viability, T/C [23] was 91.1% and the viability, T/C [24] was 94.6%. For the same molecule, the viability, T/C [25] was 90.8%, the viability, T/C [26] was 105% and the viability, T/C [27] was 89.4%. For the same molecule, the viability, T/C [28] was 70.8%, the viability, T/C [29] was 61.1% and the viability, T/C [30] was 54.5%. For the same molecule, the viability, T/C [31] was 72.7%, the viability, T/C [32] was 61.9% and the viability, T/C [33] was 51.7%. The viability, T/C [34] was 46%, the viability, T/C [35] was 21% and the viability, T/C [36] was 13.2%.

Reference: PubChem BioAssay AID2060503 (Molecular Pharmacology Branch, DTP, NCI, 2025)
